Source: ChEMBL document CHEMBL1201862, “PubChem BioAssay data set” (2004)
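These data come from cells grown in 96-well plates and exposed to compound for 48 hours at five concentrations. At the GI50, growth is halved.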 Activity calls are given as the source filed them. No stated cut-off is given here; in the data, active = GI50 up to about 1.1 µM and inactive = higher.

Legend:
Experiment in all cases: inhibition of tumour cell growth, NCI panel, 48 h
A498 = test system: A498
A549 = test system: A549
BT-549 = test system: BT-549
HL-60 = test system: HL-60
Hs-578T = test system: Hs-578T
MDA-MB-435 = test system: MDA-MB-435
MDA-N = test system: MDA-N
NCI-H460 = test system: NCI-H460
SNB-75 = test system: SNB-75
SW-620 = test system: SW-620
T47D = test system: T47D
TK-10 = test system: TK-10
UACC-62 = test system: UACC-62
UO-31 = test system: UO-31
KM12 = test system: KM12
DLD-1 = test system: DLD-1
HOP-18 = test system: HOP-18
DMS-114 = test system: DMS-114
DMS-273 = test system: DMS-273
SNB-78 = test system: SNB-78

SMILES | GI50 (A498) | GI50 (A549) | GI50 (BT-549) | GI50 (HL-60) | GI50 (Hs-578T) | GI50 (MDA-MB-435) | GI50 (MDA-N) | GI50 (NCI-H460) | GI50 (SNB-75) | GI50 (SW-620) | GI50 (T47D) | GI50 (TK-10) | GI50 (UACC-62) | GI50 (UO-31) | GI50 (KM12) | GI50 (DLD-1) | GI50 (HOP-18) | GI50 (DMS-114) | GI50 (DMS-273) | GI50 (SNB-78)
Cc1ccc(C(=O)C2CC3(CCC2(O)c2ccc(C)cc2)CC(=O)Nc2ccccc2C3=O)cc1 (centres undefined) | > 100 µM (inactive) | > 100 µM (inactive) | > 100 µM (inactive) | 10.5 µM (inactive) | 41.1 µM (inactive) | > 100 µM (inactive) | > 100 µM (inactive) | 40 µM (inactive) | 13.5 µM (inactive) | > 100 µM (inactive) | 8.57 µM (inactive) | > 100 µM (inactive) | > 100 µM (inactive) | > 100 µM (inactive) |  |  |  |  |  | 
CC1CN=C(Nc2cccc(C(F)(F)F)c2)S1 (centres undefined) | 42 µM (inactive) |  | 80 µM (inactive) | 20.7 µM (inactive) | 66.2 µM (inactive) | 53.1 µM (inactive) | 40.6 µM (inactive) | 52.8 µM (inactive) | 88.1 µM (inactive) |  | 54 µM (inactive) | 84.5 µM (inactive) | 97.3 µM (inactive) | 27.5 µM (inactive) | 81.5 µM (inactive) |  |  |  |  | 
CC(=O)Nc1ccc(C(=O)NN2C(=O)C(Cl)C2/C=C/c2ccccc2)cc1 (centres undefined) |  | > 100 µM (inactive) |  | > 100 µM (inactive) |  |  |  | > 100 µM (inactive) | > 100 µM (inactive) | > 100 µM (inactive) |  | > 100 µM (inactive) | > 100 µM (inactive) | > 100 µM (inactive) | > 100 µM (inactive) | > 100 µM (inactive) | > 100 µM (inactive) |  |  | 
COc1ccc(OC)c(C(=O)/C=C/c2cc(O)c(O)cc2F)c1 | 3.17 µM (inactive) | 9.57 µM (inactive) | 0.843 µM (active) | 0.0361 µM (active) | 0.424 µM (active) | 0.219 µM (active) | 0.181 µM (active) | 2.14 µM (inactive) | 0.442 µM (active) | 0.845 µM (active) | 5.85 µM (inactive) | 6.58 µM (inactive) | 0.701 µM (active) | 2.66 µM (inactive) | 0.474 µM (active) |  |  |  |  | 
Nc1nc(=O)n(CC(O)CO)s1 (centres undefined) | > 100 µM (inactive) | > 100 µM (inactive) |  | > 100 µM (inactive) |  |  |  | > 100 µM (inactive) | > 100 µM (inactive) | > 100 µM (inactive) |  | > 100 µM (inactive) | > 100 µM (inactive) | > 100 µM (inactive) |  | > 100 µM (inactive) | > 100 µM (inactive) | > 100 µM (inactive) | > 100 µM (inactive) | 
CC(C)(C)[Si](C)(C)OCCOCn1cc(F)c(=O)[nH]c1=O | > 100 µM (inactive) | > 100 µM (inactive) | > 100 µM (inactive) | > 100 µM (inactive) | > 100 µM (inactive) | > 100 µM (inactive) | > 100 µM (inactive) | > 100 µM (inactive) | > 100 µM (inactive) | > 100 µM (inactive) | 69 µM (inactive) | > 100 µM (inactive) | > 100 µM (inactive) | > 100 µM (inactive) | > 100 µM (inactive) |  |  |  |  | 
S=C(N/N=C(/c1ccccc1)c1ccccn1)Nc1cccc(Cl)c1 | 2.24 µM (inactive) | 1.55 µM (inactive) | 1.05 µM (active) | < 0.0277 µM (active) | 1.52 µM (inactive) | 0.802 µM (active) | 0.557 µM (active) | 0.316 µM (active) | 0.0569 µM (active) | < 0.0385 µM (active) | 0.00369 µM (active) | 0.714 µM (active) | 0.201 µM (active) | 0.566 µM (active) | 0.414 µM (active) |  |  |  |  | 
Cc1[nH]c(=O)nc(S)c1C(=O)NC1C2CCCCC2NC2CCCCC21 (centres undefined) | 18.3 µM (inactive) |  | 16.4 µM (inactive) | > 100 µM (inactive) | 23.4 µM (inactive) | 6.93 µM (inactive) | 11.5 µM (inactive) | 14.4 µM (inactive) | 16.7 µM (inactive) | 18.1 µM (inactive) | 7.59 µM (inactive) | 16.5 µM (inactive) | 4.09 µM (inactive) | 13.8 µM (inactive) | 16.1 µM (inactive) |  |  |  |  | 
CCOC(=O)[C@H]1Nc2c(cccc2[N+](=O)[O-])[C@H]2OCC[C@@H]12 |  | > 100 µM (inactive) |  |  |  |  |  | > 100 µM (inactive) | > 100 µM (inactive) | > 100 µM (inactive) |  | > 100 µM (inactive) | > 100 µM (inactive) | > 100 µM (inactive) | > 100 µM (inactive) | > 100 µM (inactive) | > 100 µM (inactive) | > 100 µM (inactive) | > 100 µM (inactive) | > 100 µM (inactive)
Cn1c(=O)[nH]c2c(c1=O)C(=O)CN2 |  | > 100 µM (inactive) |  | > 100 µM (inactive) |  |  |  | > 100 µM (inactive) | > 100 µM (inactive) | > 100 µM (inactive) |  | > 100 µM (inactive) |  | > 100 µM (inactive) | > 100 µM (inactive) | > 100 µM (inactive) | > 100 µM (inactive) | > 100 µM (inactive) | > 100 µM (inactive) | > 100 µM (inactive)
N=C(N)NS(=O)(=O)c1ccc(Nc2c3ccccc3nc3c(C(=O)N4CCN(CCO)CC4)ccc(Cl)c23)cc1 | > 100 µM (inactive) | > 100 µM (inactive) |  | > 100 µM (inactive) |  |  |  | > 100 µM (inactive) | > 100 µM (inactive) |  |  | > 100 µM (inactive) | > 100 µM (inactive) | > 100 µM (inactive) | > 100 µM (inactive) | > 100 µM (inactive) |  | > 100 µM (inactive) |  | 30.5 µM (inactive)
CN(C)c1ccc(C2ON=C(c3ccccc3)N2C23CC4CC(CC(C4)C2)C3)cc1 (centres undefined) | > 10 µM (inactive) | > 10 µM (inactive) | > 10 µM (inactive) | 9.55 µM (inactive) | > 10 µM (inactive) | > 10 µM (inactive) | > 10 µM (inactive) | > 10 µM (inactive) | > 10 µM (inactive) | > 10 µM (inactive) | > 10 µM (inactive) | > 10 µM (inactive) | > 10 µM (inactive) |  | > 10 µM (inactive) |  |  |  |  | 
C[Si](C)(C)CC(N)=O |  | > 100 µM (inactive) |  | > 100 µM (inactive) |  |  |  | > 100 µM (inactive) | > 100 µM (inactive) | > 100 µM (inactive) |  | > 100 µM (inactive) | > 100 µM (inactive) | > 100 µM (inactive) | > 100 µM (inactive) | > 100 µM (inactive) | > 100 µM (inactive) | > 100 µM (inactive) | > 100 µM (inactive) | > 100 µM (inactive)
CCN(CC)c1ccc2cc(C(=O)Nc3ccc4[nH]c(C(=O)N5C[C@@H](CCl)c6c5cc(OC(=O)Nc5ccccc5)c5[nH]cc(C)c65)cc4c3)oc2c1 [CARZELESIN] | 0.00024 µM (active) | 0.000162 µM (active) |  | 0.000282 µM (active) |  |  |  | 9.08e-05 µM (active) | 284 µM (inactive) | 0.000321 µM (active) |  |  | 4.61e-05 µM (active) | 668 µM (inactive) | 678 µM (inactive) |  | < 0.1 µM (active) | 0.000201 µM (active) | 9.33e-05 µM (active) | 0.000995 µM (active)
